From patent US20220396794A1, “APTAMERS AGAINST TRANSFERRIN RECEPTOR (TfR)” (APTERNA LIMITED, priority 2019, published 2022) come the findings set out here.

For one series, the system named is PANC-Luc tumors. Briefly: Liver-metastatic pancreatic cancer mouse model, combinational treatment with gemcitabine. The class given is in vivo, NOD/SCID mice. As for the experimental part:
Intrahepatic pancreatic cancer liver-metastatic mouse model. To create an animal model harboring traceable tumors, a firefly luciferase fragment was inserted into the pLKO.1-AS3 backbone encoding the neo gene (National RNAi Core, Academia Sinica, Taiwan). One day before transduction, 293T cells were plated onto a 6-well plate. On the day of transduction, the medium was replaced with DMEM containing serial dilutions of the transfer plasmids and incubated for 5 h, then the medium was replaced. After two days, the culture medium containing recombinant lentiviral particles was obtained. PANC-1 cells were incubated with recombinant lentiviral particles for 24 h. […] Luciferase expression was assessed using the Luciferase Assay System. […] For the combinational treatment with gemcitabine, tumors were allowed to grow for 2 weeks after inoculation until they could be detected using an IVIS system, then mice were randomly divided into five groups of 10 animals/group. […] Tumor growth was monitored by evaluating bioluminescence using an IVIS 200 in vivo imaging platform (Caliper Life Sciences, Alameda, Calif.) and measuring the difference from before the first injection and one day after the last injection. […] The mice were imaged using the IVIS 200 and bioluminescent signals were analyzed using Living Image Software (Caliper Life Sciences, Alameda, Calif.). […]

Series [1] relates to C/EBPα mRNA. Briefly: Relative gene expression by qPCR in vitro, C/EBPα. The class given is cell-based, human. As for the experimental part: (§1) Relative gene expression analysis by qPCR in vitro. For analyzing gene activation and protein expression, PANC-1 cells were seeded in duplicate into 24-well plates at a density of 1×10^5 cells per well. tTR14 or control aptamer (IRRE) conjugated to C/EBPα-saRNAs were added directly to the cells, at a final concentration of 100 nM or 200 nM. The treatment was repeated 24 h later and cells were harvested at final incubation times of 48 or 72 h. Total RNA was extracted for reverse transcription using an RNeasy kit (Qiagen). Target cDNA amplification and real-time PCR was performed using a Bio-rad kit (SsoAdvanced™ Universal SYBR® Green Supermix). For normalization, the reference gene 18S was used. To determine gene expression in vivo samples, total RNA was extracted for reverse transcription (QuantiFast® Reverse transcription, Qiagen) and target cDNA was amplified using real-time PCR (QuantiFast® SYBR®Green Master mix). The cDNA probes used were purchased as prevalidated QuantiTect® SYBR probes from Qiagen. Real-time PCR was performed with validated QuantiTect® SYBR probes (Qiagen) or validated FAM probes (Applied Biosystems).
(In qPCR the cycle at which signal appears reflects the starting amount.)

A further series relates to p21 mRNA. Briefly: Relative gene expression by qPCR in vitro, p21. In kind it is cell-based, human. As for the experimental part: as §1
Another series has as its system albumin mRNA. Briefly: Analysis of gene expression in vivo in C57BL/6J mice, albumin. To be noted: B6 mice, 3 doses of 1 nmol via tail vein, tissue harvesting on day 8. As for the experimental part:
as §1
(§2) Analysis of gene expression in vivo. Female or male at 6 week C57BL/6J mice were purchased from the Jackson laboratory for three conjugates; TC, TCT, and TCUT. […]

For another series, the system named is PANC-1 cells. Briefly: MTS assay, inhibition of cell proliferation. The class given is cell-based, human. As for the experimental part: MTS assay. […] Cells were treated with tTR14-C/EBPα and […] at 100 nM or 200 nM twice at 24-h intervals.
A general note: Tetrazolium assays rely on reduction of a dye to a coloured formazan, in cell work by metabolically active cells.

Series [2] has as its system C/EBPα mRNA. Briefly: Analysis of gene expression in vivo in C57BL/6J mice, C/EBPα. To be noted: B6 mice, 3 doses of 1 nmol via tail vein. As for the experimental part:
as §1, §2

Setting [3] is: PANC-1, 100 nM, 48 or 72 h (FIG. 7).
Setting [4] is: PANC-1, 72 h, 100 nM, compared to IRRE control group (FIG. 3).

For `Nc1ccn([C@@H]2O[C@H](CO)[C@@H](O)C2(F)F)c(=O)n1` [gemcitabine, 2′, 2′-difluoro 2′deoxycytidine, reference compound], in the series with PANC-Luc tumors (gemcitabine alone 50 mg/kg 2 times/week I.V., compared to vehicle-treated control), the “reduction of tumor volume” value is about 70%.

Take “TCUT: TR14 ST1-3 with CEBPA sense, a 10-uracil spacer and albumin affinity tag (UUUAUUCACAUUUUUGAAUUGAGCGGUCAUUGUCACUGGUCUUUUUUUUUUUUN; listed as RNA, chemistry not given here)”: the “upregulation of C/EBPα” value in the series on C/EBPα mRNA [1] (setting [3]) is reported as “upregulation”. Besides, the “mRNA expression of C/EBPα” value in the series on C/EBPα mRNA [1] (setting [4]) is “upregulation”. Also, in the series on PANC-Luc tumors (conjugate 1 nmol 3 times/week I.P. combined with gemcitabine 50 mg/kg 2 times/week I.V., compared with PBS), the “tumor burden by measuring photon increase” value was “significant reduction of tumor burden”. Moreover, in the series on p21 mRNA (setting [3]), the “upregulation of p21” value is given as “upregulation”. Moreover, in the series on p21 mRNA (setting [4]), the “mRNA expression of p21” value is on record as “upregulation”. The “albumin mRNA levels in liver” value in the series with albumin mRNA was “none increased”. Further, the “cell proliferation by MTS assay” value with PANC-1 cells (setting [3]) is recorded as “inhibited the cancer cell proliferation”; in the series with PANC-1 cells (PANC-1, 72 h, compared to IRRE control group (FIG. 3)), “inhibition of tumor cell proliferation”. The “mRNA levels of C/EBPα in brain tissue” value with C/EBPα mRNA [2] (tissue harvesting on day 8) was “no upregulation”. Besides, the “mRNA levels of C/EBPα in liver” value in the series on C/EBPα mRNA [2] (tissue harvesting on day 8, compared to untreated group) is recorded as “increased”.
